Values belong to the compound of their own block, whether it stands above or below them. Where a SMILES comes first, the peptide text is derived from it. Primed or numbered codes have the meaning given here. Where no end group is shown, it is not given here. [ ]: non-standard residue; d: D form. The star is where a group is joined. FITC = O=C1OC2(c3ccc(O)cc3Oc3cc(O)ccc32)c2ccc(NC(=S)*)cc21; FITC′ = fluorescein isothiocyanate label; PEG = not defined here
Tests used:
subcutaneous tumors = experiment: Tumor targeting of FITC-labeled collagen-binding construct after intravenous infusion; format: in vivo; details: intravenous infusion into the tail vein of nude mice; FIGS. 3C-3D
[1] = test system: subcutaneous human pancreatic cancer xenografts
[2] = test system: subcutaneous human pancreatic cancer xenografts; details: paclitaxel without aptamer; cited from earlier work
[3] = test system: Locally Recurrent or Metastatic Breast Cancer; details: Phase III, once per week; cited from earlier work
collagen agarose beads = experiment: Collagen-agarose column chromatography of mAb-aptamers with fluorescent Rabbit-Anti-Human Abs; format: binding; details: FIG. 7B
[4] = Serum stability (resistance to proteolysis) of mAb-aptamers; format: in vitro ADME; details: FIG. 7C
Text: The serum stability (resistance to proteolysis) of mAb-Aptamer 1, mAb-Aptamer 2 and mAb-Aptamer 4 were further analyzed.

Collagen-Agarose beads [5] = experiment: Collagen-agarose column chromatography of FITC-labeled collagen-binding constructs; details: increasing amounts applied to Collagen-Agarose beads, in vitro; FIG. 3B
Text: Three fluorescein isothiocyanate (FITC)-labeled collagen-binding constructs were generated and tested. Construct 1 (ac-L1/XC-BD1/L3/FITC) had the sequence of Ac-RRGVHVGWREPSFMALSMPHGGSGK-(FITC) (SEQ ID NO: 45); Construct 2(ac-L1/XC-BD2/L3/FITC) had the sequence of Ac-RRGVHVGWREPGRMELNMPHGGSGK-(FITC) (SEQ ID NO: 46); Construct 3 (ac-L2/XC-BD2/L3/FITC) had the sequence of Ac-RRGVRVAWREPGRMELNMPHGGSGK-(FITC) (SEQ ID NO: 47). […] Increasing amounts of these constructs were applied to the chromatography columns of Collagen-Agarose beads, followed by successive washes with (1) PBS, (2) PBS/PBS, Tween-20, BSA. The retention of the constructs to the column was documented by use of a blue-light transilluminator with an amber filter; quantitative data was obtained with a Quantus fluorometer.

[6] = Serum stability (resistance to proteolysis) of Tx-Apts; format: in vitro ADME; details: FIG. 4C
Collagen-Agarose beads [7] = experiment: Collagen-agarose chromatography of RNA-Apts with Oregon Green 488 labeled oligonucleotides; format: binding; details: for retention of labeled oligonucleotides on collagen-agarose mini-columns: FIG. 10C; for depletion of fluorescently labeled oligonucleotides from the column eluates: increasing amounts of RNA-Apt, FIG. 10B
Experimental: Short oligonucleotides labeled with Oregon Green 488 were incubated with increasing amounts of RNA-Apt 07 or RNA-Apt 08 in PBS for 30 min at 30° C. and then applied to the chromatography column of collagen-agarose beads, followed by successive washes with (1) PBS, (2) PBS/PBS, Tween-20, BSA. The retention to the column was documented by use of a blue-light transilluminator with an amber filter; quantitative data was obtained with a Quantus fluorometer.

Compound: CSCC[C@H](NC(=O)[C@H](CCCNC(=N)N)NC(=O)CNC(=O)[C@@H]1CCCN1C(=O)[C@H](CCC(=O)O)NC(=O)[C@H](CCCNC(=N)N)NC(=O)[C@H](Cc1c[nH]c2ccccc12)NC(=O)CNC(=O)[C@@H](NC(=O)[C@H](Cc1c[nH]cn1)NC(=O)[C@@H](NC(=O)CNC(=O)[C@H](CCCNC(=N)N)NC(=O)[C@H](CCCNC(=N)N)NC(C)=O)C(C)C)C(C)C)C(=O)N[C@@H](CCC(=O)O)C(=O)N[C@@H](CC(C)C)C(=O)N[C@@H](CC(N)=O)C(=O)N[C@@H](CCSC)C(=O)N1CCC[C@H]1C(=O)N[C@@H](Cc1c[nH]cn1)C(=O)NCC(=O)NCC(=O)N[C@@H](CO)C(=O)NCC(=O)N[C@@H](CCCCNC(=S)Nc1ccc2c(c1)C(=O)OC21c2ccc(O)cc2Oc2cc(O)ccc21)C(=O)O [Construct 2, Ac-RRGVHVGWREPGRMELNMPHGGSGK-(FITC)] (Ac-RRGVHVGWREPGRMELNMPHGGSGK(FITC)-OH)
- targeting to subcutaneous tumors (fluorescence) (subcutaneous tumors): efficiently targeted to subcutaneous tumors

Compound: CC(=O)O[C@H]1C(=O)[C@@]2(C)[C@H]([C@H](OC(=O)c3ccccc3)[C@]3(O)C[C@H](OC(=O)[C@H](O)[C@@H](NC(=O)c4ccccc4)c4ccccc4)C(C)=C1C3(C)C)[C@]1(OC(C)=O)CO[C@@H]1C[C@@H]2O [paclitaxel]
- active dose as fraction of the low metronomic doses commonly used ([1]; targeted paclitaxel treated mice): 1/10
- active dose as fraction of the normal effective dose of paclitaxel in mice ([1]; used with Taxol-aptamer): 1/50
- dose at which paclitaxel exhibited anti-angiogenic activity ([1]; used with Taxol-aptamer, FIG. 6C): 0.2 mg/kg
- normal effective dose of paclitaxel in mice [2]: 10 mg/kg
- clinical performance compared with Abraxane [3]: just as good or better than Abraxane
- toxicity compared with Abraxane [3]: significantly less toxicity

- binding of antibodies to the collagen beads (collagen agarose beads): higher binding
Compound: (PEG)-[C-A-R-R-G-V-H-V-G]-W-R-E-P-G-R-M-E-L-N-M-P-H-[G-G-S-G-G]-H-W-R-G-W-V-A-[G-G-S-G-G]-H-W-R-G-W-V-A-p-t ({PEG}-CARRGVHVGWREPGRMELNMPHGGSGGHWRGWVAGGSGGHWRGWVA[dP][dT]; reading uncertain; also: printed as (PEG)-[C-A-R-R-G-V-H-V-G]-W-R-E-P-G-R-M-E-L-N-M-P-H-[G-G-S-G-G]-H-W-R-G-W-V-A-[G-G-S-G-G]-H-W-R-G-W-V-A-p-t) [mAb-Aptamer 4]
- serum stability (resistance to proteolysis) [4]: greatest serum stability

Compound: Ac-RRGVHVGWREPSFMALSMPHGGSGK-(FITC) (Ac-RRGVHVGWREPSFMALSMPHGGSGK(FITC′)) [Construct 1]
- binding to collagen (retention of the constructs to the column) (Collagen-Agarose beads [5]): bound to collagen in a dose dependent manner

- serum stability (resistance to proteolysis) over time [6]: most stable
Compound: Ac-[dR][dR]GVHVGWREPGRMELNMPHGGSGRGVGIMKACGRTRHTVR[dM]G (N-terminus assumed) [Tx-Apt2, Ac-[r-r-G-V-H-V-G]-W-R-E-P-G-R-M-E-L-N-M-P-H-[G-G-S-G]-R-G-V-G-I-M-K-A-C-G-R-T-R-H-T-V-R-m-G]

Compound: RRGVHVGWREPSFMALSMPHGGRRRRRRRRR [RNA-Apt 08]
- retention of labeled oligonucleotides on collagen-agarose mini-columns (Collagen-Agarose beads [7]): retaining the labeled oligonucleotides on the collagen-agarose mini-columns
- depletion of fluorescently labeled oligonucleotides from the column eluates (Collagen-Agarose beads [7]): depleted fluorescently labeled-oligonucleotides from the eluates

Compound: RRRRRRRRRRRGVHVGWREPSFMALSMPHGG [RNA-Apt 07]
- retention of labeled oligonucleotides on collagen-agarose mini-columns (Collagen-Agarose beads [7]): retaining the labeled oligonucleotides on the collagen-agarose mini-columns
- depletion of fluorescently labeled oligonucleotides from the column eluates (Collagen-Agarose beads [7]): depleted fluorescently labeled-oligonucleotides from the eluates

- binding of antibodies to the collagen beads (collagen agarose beads): higher binding
Compound: r-r-GVHVGWREPGRMELNMPHGGSGGHWRGWVAGGSGGHWRGWV-a-a ([dR][dR]GVHVGWREPGRMELNMPHGGSGGHWRGWVAGGSGGHWRGWV[dA][dA]) [mAb-Aptamer 2]

Source: patent US11273206B2, “Targeting of pharmaceutical agents to pathologic areas using bifunctional fusion polypeptides” (Counterpoint Biomedica LLC, priority 2014, dated 2022)
